Numbered stars: 1 amine (or outer) side, 2 acyl side, 3 side chain; on linkers, the order of the positions; unused ones are H or OH. Bridge positions count the residues as written; N and C are the ends. Square brackets hold non-standard residues; d marks the D form. Peptide text beside a SMILES is read from it. dPhe(4-tBu) = CC(C)(C)c1ccc(C[C@@H](N)C(=O)O)cc1; dPhe(4-Cl) = N[C@H](Cc1ccc(Cl)cc1)C(=O)O; dPhe(4-F) = N[C@H](Cc1ccc(F)cc1)C(=O)O; d2Nal = N[C@H](Cc1ccc2ccccc2c1)C(=O)O; Maleoyl = O=C(/C=C\C(=O)[*:2])[*:1]; dBta = N[C@H](Cc1csc2ccccc12)C(=O)O; Suc = O=C(CCC(=O)[*:2])[*:1]; Dap = NC[C@H](N)C(=O)O
Tests used:
[1] = target: T1, human MC4 receptor (Homo sapiens, UniProt P32245); assay: Competitive binding assay, human MC4 receptor; conditions: for IC50: CHO cell membranes expressing human MC4 receptor, 200 pM [125I]-NDP-α-MSH, three independent experiments, read-out: hMC-4R (binding data); for 3:4: selectivity ratio of hMC-3R to hMC-4R binding values; for 5:4: selectivity ratio of hMC-5R to hMC-4R binding values
T1 construct: expressed in transfected cells; host or cells: Chinese hamster ovary (CHO) cells
Method: (§1) The peptides of the present invention were evaluated for antagonist activity in receptor binding assay. Crude membrane preparations were obtained from Chinese hamster ovary cells expressing human MC3, MC4, and MC5 receptors. Cells were rinsed with phosphate-buffered saline (PBS) lacking CaCl2 or MgCl2 (Life Technologies, Gaithersburg, Md., USA), and then detached with enzyme-free dissociation media (Specialty Media, Lavellette, N.J., USA). Cells were pelleted at 2800×g for 10 min and resuspended in membrane buffer (20 mM Tris, pH 7.2, 5 mM ethylenediaminetetraacetic acid) with 5 μg/ml leupeptin, 5 μg/ml aprotinin, 40 μg/ml bacitracin, and 25 μg/ml pefabloc (Boehringer Mannheim). The cells were […] with 10 strokes by using a motor-driven Teflon-coated pestle in a glass homogenizer at low speed. The resulting cell suspension was centrifuged at 4100×g, 4° C., for 20 min. The pellet was resuspended in fresh membrane buffer with protease inhibitors, aliquoted, snap-frozen in liquid nitrogen, and stored at −80° C. The resulting crude membranes were titrated to determine the optimal level necessary for performing binding studies.
(§2) Binding reactions (total volume=250 μl) contained MBB (50 mM Tris, pH 7.2, 2 mM CaCl2, 1 mM MgCl2), 0.1% bovine serum albumin, crude membranes prepared from cells expressing human MC3, MC4, or MC5 receptor, 200 pM of [125I]-NDP-α-MSH (Amersham, Arlington Heighs, Ill., USA), and increasing concentrations of unlabeled test compounds dissolved in dimethylsulfoxide (final concentration=2%). Reactions were incubated for 1 h without shaking and then filtered through 96-well filter plates (Packard), presoaked in 1% polyethyleneimine. Filters were washed 3 times with TNE buffer (50 mM Tris, pH 7.4, 5 mM ethylene-diaminetetraacetic acid, 150 mM NaCl), dried and counted by using Microscint-20 in a Topcount scintillation counter (Packard).

[2] = target: T2, human MC5 receptor (Homo sapiens, UniProt P33032); assay: Competitive binding assay, human MC5 receptor; conditions: CHO cell membranes expressing human MC5 receptor; 200 pM [125I]-NDP-α-MSH; three independent experiments; read-out: hMC-5R (binding data)
T2 construct: expressed in transfected cells; host or cells: Chinese hamster ovary (CHO) cells
Method: as §1, §2

[3] = target: human MC3 receptor (Homo sapiens, UniProt P41968); assay: Competitive binding assay, human MC3 receptor; conditions: hMC-3R (binding data), CHO cell membranes expressing human MC3 receptor; 200 pM [125I]-NDP-α-MSH; three independent experiments
[4] = rats; cited from earlier work

T2 sequence (P33032 whole entry): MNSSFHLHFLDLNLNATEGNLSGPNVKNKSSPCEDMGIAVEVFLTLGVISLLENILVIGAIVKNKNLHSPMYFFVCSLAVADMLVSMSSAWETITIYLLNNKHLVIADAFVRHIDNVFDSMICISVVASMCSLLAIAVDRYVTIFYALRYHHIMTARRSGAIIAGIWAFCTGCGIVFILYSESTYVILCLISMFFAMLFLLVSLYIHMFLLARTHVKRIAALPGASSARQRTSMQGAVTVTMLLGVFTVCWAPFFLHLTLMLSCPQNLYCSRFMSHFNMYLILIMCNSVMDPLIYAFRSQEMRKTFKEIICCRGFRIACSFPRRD
human MC3 receptor, sequence (P41968 whole entry): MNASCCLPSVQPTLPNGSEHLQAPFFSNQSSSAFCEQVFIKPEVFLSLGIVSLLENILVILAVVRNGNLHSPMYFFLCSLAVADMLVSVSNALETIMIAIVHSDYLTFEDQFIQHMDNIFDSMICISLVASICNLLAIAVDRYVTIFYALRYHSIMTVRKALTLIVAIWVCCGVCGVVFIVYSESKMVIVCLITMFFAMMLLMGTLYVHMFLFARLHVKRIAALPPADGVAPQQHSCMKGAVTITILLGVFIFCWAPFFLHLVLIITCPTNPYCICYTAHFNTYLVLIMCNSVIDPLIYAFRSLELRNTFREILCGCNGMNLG
T1 sequence (P32245 whole entry): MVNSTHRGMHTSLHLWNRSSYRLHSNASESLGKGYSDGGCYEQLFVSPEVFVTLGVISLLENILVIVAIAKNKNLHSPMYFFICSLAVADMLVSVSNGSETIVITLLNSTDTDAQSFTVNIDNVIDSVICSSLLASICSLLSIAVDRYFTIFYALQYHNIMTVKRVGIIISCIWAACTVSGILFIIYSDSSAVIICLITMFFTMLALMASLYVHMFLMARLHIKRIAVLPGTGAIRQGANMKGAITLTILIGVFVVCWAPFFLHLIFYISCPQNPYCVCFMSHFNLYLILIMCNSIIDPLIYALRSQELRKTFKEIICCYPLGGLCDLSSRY

Compound	IC50 [1] [nM]	3:4 [1]	5:4 [1]	IC50 [2] [nM]	IC50 [3] [nM]	body weight [4]	food intake [4]
N=C(N)NCCC[C@@H]1NC(=O)[C@@H](Cc2ccc3ccccc3c2)NC(=O)[C@H](CCCCN)NC(=O)CCC(=O)NCCCC[C@@H](C(N)=O)NC(=O)[C@H](Cc2c[nH]c3ccccc23)NC1=O [Example 24] (K[d2Nal]RWK-NH2; linker N-5 via Suc)	40 ± 5	75	250	10000 ± 8700	3000 ± 1100		
HS024						increase	increase
N=C(N)NCCC[C@@H]1NC(=O)[C@@H](Cc2ccc3ccccc3c2)NC(=O)C2CC2C(=O)NCCCC[C@@H](C(N)=O)NC(=O)[C@H](Cc2c[nH]c3ccccc23)NC1=O (single isomer, unassigned) [11 a]	0.6 ± 0.1	216	316	190 ± 37	130 ± 16		
N=C(N)NCCC[C@@H]1NC(=O)[C@@H](Cc2ccc3ccccc3c2)NC(=O)C2CC2C(=O)NCCCC[C@@H](C(N)=O)NC(=O)[C@H](Cc2c[nH]c3ccccc23)NC1=O (single isomer, unassigned) [11 b]	1.6 ± 0.2	168	337	540 ± 230	270 ± 24		
N=C(N)NCCC[C@@H]1NC(=O)[C@@H](Cc2ccc3ccccc3c2)NC(=O)[C@H](Cc2c[nH]cn2)NC(=O)CCC(=O)NCCCC[C@@H](C(N)=O)NC(=O)[C@H](Cc2c[nH]c3ccccc23)NC1=O [Example 7] (H[d2Nal]RWK-NH2; linker N-5 via Suc)	1 ± 0.1	52	200	200 ± 3.6	52 ± 7.9		
N=C(N)NCCC[C@@H]1NC(=O)[C@@H](Cc2ccc(Cl)cc2)NC(=O)CCC(=O)NCCCC[C@@H](C(N)=O)NC(=O)[C@H](Cc2c[nH]c3ccccc23)NC1=O [Example 17] ([dPhe(4-Cl)]RWK-NH2; linker N-4 via Suc)	3.5 ± 0.3	163	126	440 ± 240	570 ± 290		
N=C(N)NCCC[C@@H]1NC(=O)[C@@H](Cc2ccc3ccccc3c2)NC(=O)[C@H](Cc2c[nH]cn2)NC(=O)[C@@H](N)CC(=O)NCCCC[C@@H](C(N)=O)NC(=O)[C@H](Cc2c[nH]c3ccccc23)NC1=O [Example 3]	1.7 ± 0.8	9	14	24 ± 6.7	16 ± 5.2		
N=C(N)NCCC[C@@H]1NC(=O)[C@@H](Cc2ccc(F)cc2)NC(=O)CCC(=O)NCCCC[C@@H](C(N)=O)NC(=O)[C@H](Cc2c[nH]c3ccccc23)NC1=O [Example 19] ([dPhe(4-F)]RWK-NH2; linker N-4 via Suc)	70 ± 10	69	143	10000 ± 2000	4800 ± 1000		
N=C(N)NCCC[C@@H]1NC(=O)[C@@H](Cc2ccc3ccccc3c2)NC(=O)[C@H](Cc2c[nH]cn2)NC(=O)CCC(=O)NC[C@@H](C(N)=O)NC(=O)[C@H](Cc2c[nH]c3ccccc23)NC1=O [Example 8] (H[d2Nal]RW[Dap]-NH2; linker N-5 via Suc)	0.2 ± 0.03	95	355	71 ± 8.4	19 ± 1.5		
N=C(N)NCCC[C@@H]1NC(=O)[C@@H](Cc2ccc3ccccc3c2)NC(=O)/C=C\C(=O)NCCCC[C@@H](C(N)=O)NC(=O)[C@H](Cc2c[nH]c3ccccc23)NC1=O [Example 12] ([d2Nal]RWK-NH2; linker N-4 via Maleoyl)		300	270				
NCCCC[C@@H]1NC(=O)[C@@H](Cc2ccc3ccccc3c2)NC(=O)CCC(=O)NCCCC[C@@H](C(N)=O)NC(=O)[C@H](Cc2c[nH]c3ccccc23)NC1=O [Example 20] ([d2Nal]KWK-NH2; linker N-4 via Suc)	44 ± 7	84	48	2100 ± 500	3700 ± 1200		
MTII							reduced
N=C(N)NCCC[C@@H]1NC(=O)[C@@H](Cc2csc3ccccc23)NC(=O)CCC(=O)NCCCC[C@@H](C(N)=O)NC(=O)[C@H](Cc2c[nH]c3ccccc23)NC1=O [Example 16] ([dBta]RWK-NH2; linker N-4 via Suc)	69 ± 12	81	44	3000 ± 1000	5600 ± 3900		
CC(=O)N[C@H]1CC(=O)NCCCC[C@@H](C(N)=O)NC(=O)[C@H](Cc2c[nH]c3ccccc23)NC(=O)[C@H](CCCNC(=N)N)NC(=O)[C@@H](Cc2ccc3ccccc3c2)NC1=O [Example 6] (Ac-D[d2Nal]RWK-NH2; lactam 1-5)	4.7 ± 0.6	46	234	1100 ± 150	220 ± 6.7		
SHU9119						increased	increased
CC(C)(C)c1ccc(C[C@H]2NC(=O)CCC(=O)NCCCC[C@@H](C(N)=O)NC(=O)[C@H](Cc3c[nH]c4ccccc34)NC(=O)[C@H](CCCNC(=N)N)NC2=O)cc1 [Example 14] ([dPhe(4-tBu)]RWK-NH2; linker N-4 via Suc)	46 ± 6	37	54	2500 ± 1000	1500 ± 1100		

Reference: patent US6693165B2 (Merck & Co., Inc., priority 2000, dated 2004)
